What all share (assay type): cell-based
In test [1] the target is Delta-type opioid receptor (Homo sapiens, UniProt P41143). The test can be described thus: Binding affinity against human opioid receptor delta 1 expressed in HEK293 cells using [3H]DDPDE radioligand.
In test [2] the target is Kappa-type opioid receptor (Homo sapiens, UniProt P41145). As to the kind of experiment: Binding affinity against human opioid receptor kappa 1 expressed in HEK293 cells using 3H-U69,593 radioligand.
Another test has as its target Mu-type opioid receptor (Homo sapiens, UniProt P35372). The test can be described thus: Binding affinity against human opioid receptor mu 1 expressed in HEK293 cells using [3H]DAMGO radioligand.
Test [3] concerns the target T1, Nociceptin receptor (Homo sapiens, UniProt P41146). As to the kind of experiment: Binding affinity determined by the ability to compete with [125I]-Tyr14- nociceptin from binding to human opiate receptor-like 1 expressed in HEK293 cells.
The target of test [4] is T1, Nociceptin receptor. As to the kind of experiment: Ability to inhibit calcium flux in HEK293 cells overexpresses human opiate receptor-like 1 in the presence of 100 nM nociceptin. (In general: A change in cytosolic calcium serves as a functional read-out for many receptors and channels.)

T1 sequence (P41146 whole entry): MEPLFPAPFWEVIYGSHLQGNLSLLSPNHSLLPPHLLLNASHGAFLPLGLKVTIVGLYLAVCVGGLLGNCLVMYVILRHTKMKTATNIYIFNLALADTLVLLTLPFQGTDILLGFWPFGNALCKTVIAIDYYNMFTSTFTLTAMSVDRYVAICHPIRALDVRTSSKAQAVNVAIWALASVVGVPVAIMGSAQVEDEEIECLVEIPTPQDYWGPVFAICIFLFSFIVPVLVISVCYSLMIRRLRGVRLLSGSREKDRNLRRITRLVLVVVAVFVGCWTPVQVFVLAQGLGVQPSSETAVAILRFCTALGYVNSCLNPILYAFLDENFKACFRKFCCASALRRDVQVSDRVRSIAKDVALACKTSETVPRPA
Sequence of Delta-type opioid receptor (P41143 whole entry): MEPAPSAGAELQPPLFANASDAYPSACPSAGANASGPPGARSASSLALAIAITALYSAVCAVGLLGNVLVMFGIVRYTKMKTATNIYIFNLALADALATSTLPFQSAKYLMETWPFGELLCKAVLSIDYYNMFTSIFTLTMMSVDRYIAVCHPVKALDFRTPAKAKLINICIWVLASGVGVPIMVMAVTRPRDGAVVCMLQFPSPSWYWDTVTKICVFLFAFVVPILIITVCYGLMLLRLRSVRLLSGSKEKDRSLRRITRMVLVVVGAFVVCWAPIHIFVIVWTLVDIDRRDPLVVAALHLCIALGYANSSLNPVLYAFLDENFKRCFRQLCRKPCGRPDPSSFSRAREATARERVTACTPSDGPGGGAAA
Sequence of Kappa-type opioid receptor (P41145 whole entry): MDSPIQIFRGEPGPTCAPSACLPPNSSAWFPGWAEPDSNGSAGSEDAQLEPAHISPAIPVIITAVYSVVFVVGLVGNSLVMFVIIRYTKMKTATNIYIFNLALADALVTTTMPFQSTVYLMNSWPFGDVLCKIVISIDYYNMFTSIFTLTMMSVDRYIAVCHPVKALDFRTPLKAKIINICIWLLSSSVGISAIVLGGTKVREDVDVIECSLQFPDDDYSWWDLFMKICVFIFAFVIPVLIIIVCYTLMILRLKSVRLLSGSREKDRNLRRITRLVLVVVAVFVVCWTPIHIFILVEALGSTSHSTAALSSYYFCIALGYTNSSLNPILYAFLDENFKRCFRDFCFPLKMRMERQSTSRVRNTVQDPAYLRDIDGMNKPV
Sequence of Mu-type opioid receptor (P35372 whole entry): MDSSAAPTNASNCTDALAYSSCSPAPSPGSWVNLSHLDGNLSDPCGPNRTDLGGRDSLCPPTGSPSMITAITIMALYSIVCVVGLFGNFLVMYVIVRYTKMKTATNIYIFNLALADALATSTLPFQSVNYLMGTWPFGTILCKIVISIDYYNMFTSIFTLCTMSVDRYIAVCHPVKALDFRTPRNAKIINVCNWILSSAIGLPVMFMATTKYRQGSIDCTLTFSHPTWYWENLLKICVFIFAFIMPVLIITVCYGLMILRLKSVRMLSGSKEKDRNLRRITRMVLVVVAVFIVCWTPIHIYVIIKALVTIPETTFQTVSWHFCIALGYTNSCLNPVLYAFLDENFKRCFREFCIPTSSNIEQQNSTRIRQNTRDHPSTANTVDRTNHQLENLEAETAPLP

In general, IC50 refers to the concentration that gives 50% inhibition. In turn, `CC(C)c1ccc2c(c1)C1(CCN(CC3CCCCCCC3)CC1)C(=O)N2C` yielded a 50% inhibitory concentration (IC50) in test [1] above 10 µM. Consider `COc1ccc2c(c1)N(CC1CC1)C(=O)C21CCN(CC2CCCCCCC2)CC1`, for which the IC50 in test [2] is above 10 µM; in test [1] it was above 10 µM; at Mu-type opioid receptor, 10 µM; on Nociceptin receptor [3], above 10 µM. On to `COC(=O)CN1C(=O)C2(CCN(Cc3ccc(-c4ccccc4)cc3)CC2)c2ccccc21`, for which the IC50 at Nociceptin receptor [3] turned out to be 10 µM. `Cc1ccc2c(c1)C1(CCN(CC3CCCCCCC3)CC1)C(=O)N2C`: in test [1], the IC50 is 9.4 µM. A word on the inhibition: it is how much of the control response was suppressed. In the case of `CN1C(=O)C2(CCN(CC3CCCCCCC3)CC2)c2cc(F)ccc21`, on Nociceptin receptor [4], the inhibition worked out at 66%. `COC(=O)CN1C(=O)C2(CCN(CC3CCCCCCC3)CC2)c2ccccc21` registered a half-inhibitory concentration (IC50) in test [1] above 10 µM. The same measure, in the same setting: as for `CC(=O)OCCN1C(=O)C2(CCN(CC3CCCCCCC3)CC2)c2ccccc21`, the figure is above 10 µM. The same measure, in the same setting: the value for `O=C1N(CC2CO2)c2ccccc2C12CCN(CC1CCCCCCC1)CC2` (centres undefined) was above 10 µM; that for `CCN1C(=O)C2(CCN(CC3CCCCCCC3)CC2)c2ccc(OC)cc21` was above 10 µM. For the molecule `O=C1Nc2ccccc2C12CCN(CC1CCCCCCC1)CC2`, the inhibition on Nociceptin receptor [4] amounted to 45%. This molecule showed an IC50 in test [1] above 10 µM. Turning to `COC(=O)CN1C(=O)C2(CCN(c3ccc4c5c(cccc35)CC4)CC2)c2ccccc21`, the concentration for half-maximal inhibition (IC50) on Nociceptin receptor [3] amounted to 0.35 µM.

Consider `Cc1ccc2c(c1)N(C)C(=O)C21CCN(CC2CCCCCCC2)CC1`, for which the inhibition on Nociceptin receptor [4] was determined as 48%. Consider `COc1ccc2c(c1)N(C)C(=O)C21CCN(CC2CCCCCCC2)CC1`, for which the IC50 in test [1] was above 10 µM.

On Nociceptin receptor [3], `COC(=O)CN1C(=O)C2(CCN(Cc3ccccc3-c3ccsc3)CC2)c2ccccc21` displayed an IC50 of 10 µM. On Nociceptin receptor [3] (hek293), `O=C(O)CN1C(=O)C2(CCN(CC3CCCCCCC3)CC2)c2ccccc21` registered an IC50 below 10 µM.

The molecule `COC(=O)CN1C(=O)C2(CCN(C(C)c3ccccc3)CC2)c2ccccc21` (centres undefined) gave a concentration for half-maximal inhibition (IC50) at Nociceptin receptor [3] of 10 µM. The same measure, in the same setting: the value for `CCCCCCC(CCCC)CN1CCC2(CC1)C(=O)N(CC(=O)OC)c1ccccc12` (centres undefined) was 10 µM. Regarding `CCN(Cc1ccc(C)cc1)CC(O)CN1C(=O)C2(CCN(CC3CCCCCCC3)CC2)c2ccccc21` (centres undefined), in test [1], the 50% inhibitory concentration (IC50) was above 10 µM. With `Cc1cccc2c1C1(CCN(CC3CCCCCCC3)CC1)C(=O)N2C`, the inhibition at Nociceptin receptor [4] came to 81%. In test [1], this molecule registered a half-inhibitory concentration (IC50) above 10 µM. In turn, `O=C1N(CC(O)CNCCN2CCOCC2)c2ccccc2C12CCN(CC1CCCCCCC1)CC2` (centres undefined) yielded an IC50 in test [1] above 10 µM. Take `COC(=O)CN1C(=O)C2(CCN(C(=O)CCC(=O)c3ccccc3)CC2)c2ccccc21`: at Nociceptin receptor [3], the half-maximal inhibitory concentration (IC50) is above 10 µM. As for `COC(=O)CN1C(=O)C2(CCN(C(=O)C3CCC(OC)CC3)CC2)c2ccccc21` (centres undefined), on Nociceptin receptor [3], the IC50 is above 10 µM. On to `O=C1N(Cc2ccccc2)c2ccccc2C12CCN(CC1CCCCCCC1)CC2`, for which, in test [1], the IC50 is above 10 µM. Regarding `CN1C(=O)C2(CCN(CC3CCCCCCC3)CC2)c2ccccc21`, the IC50 in test [1] was above 10 µM.

These data come from ChEMBL document CHEMBL1143642, “Preparation of 3-spirocyclic indolin-2-ones as ligands for the ORL-1 receptor” (Bioorg Med Chem Lett, 2005).
